Assay results reported in US12459918B2, “Isoquinolinone derivatives serving as rock protein kinase inhibitors and use thereof” (GUANGZHOU OCUSUN OPHTHALMIC BIOTECHNOLOGY CO., LTD., priority 2019, dated 2025).

Experiments:
Format in all cases: in vivo
[1] = system: New Zealand rabbits with acute ocular hypertension; assay: Intraocular pressure reduction experiment in New Zealand rabbits with acute ocular hypertension, experiment operation 2; conditions: for Intraocular pressure in the left eye: left eye (solvent, not modeled)
Excerpt: Experimental Example 3. Intraocular Pressure Reduction Experiment in New Zealand Rabbits with Acute Ocular Hypertension
Acute ocular hypertension of rabbits were induced by anterior chamber injection of a viscoelastic agent and the intraocular pressure reduction action of compound 60 and compound 63 at different concentrations were explored by eye-drop administration.
Male New Zealand rabbits, aged 97-127 days, weighted 2.5-3.4 kg, purchased from PizhouDongfang Breeding Co. Ltd.
50 male New Zealand rabbits were randomly divided into 5 groups according to body weight, with 10 rabbits/per group Animals in 1-5 groups were injected with medical sodium hyaluronate gel in the anterior chamber of right eye in a single dose, 100 μL/eye, to induce ocular hypertension. In 5-15 minutes after modeling, the right eye was respectively dropped with a solvent, K-115 and test samples (compound 63 at different concentrations), the left eye was dropped with a solvent, the volume of the administration was all 50 μL/eye, and intraocular pressure in both eyes of the animals was measured before administration and in 2, 4, 6, 8 and 10 hours after administration, respectively.

[2] = system: New Zealand rabbits with normal intraocular pressure; assay: Ocular stimulation response examination by hand-held slit lamp, 14 days eye-drop administration; conditions: concentration range of 0.25-4 mg/mL, 14 consecutive days, 50 μL/eye/day
Procedure: (§1) 42 male New Zealand rabbits were randomly divided into 7 groups, with 6 rabbits per group. Animals were randomly divided according to body weight Animals in 1-7 groups were eye-dropped with normal saline in the left eye and with solvent/control sample/test sample in the right eye respectively by a volume of 50 μL/eye, once per day for 14 consecutive days, and the day of administration was recorded as Day 1. The intraocular pressure of the animals was measured before Day 1 administration and in 1, 2, 4, 6, 8 and 10 hours after Day 1 administration, respectively (Table 8).
Before the experiment (Day 2/Day 1), before daily administration during the administration (Days 1-14), and in 1, 2, 4, 24, 48 and 72 hours after the last administration (Day 14), the eyes of animals were examined for ocular stimulation response and fluorescein sodium by a hand-held slit lamp (scoring by referring to the scoring criteria).
Before the experiment (Day 2/Day 1), before the first daily administration (Days 1-14) during the administration, and in 1, 2, 4, 24, 48 and 72 hours after the last administration, the eyes of animals were examined for ocular stimulation response by a hand-held slit lamp. The scoring criteria were as follows. […]

[3] = system: New Zealand rabbits with normal intraocular pressure; assay: Repeated eye-drop administration for 14 days, experiment operation 2: Day 1 intraocular pressure; conditions: for Mean intraocular pressure of both eyes: saline in left, Day 1
Excerpt: Experimental example 4. Experiment on reduction of intraocular pressure and ocular toxicity of New Zealand rabbits with normal intraocular pressure by repeated eye-drop administration for 14 days
The intraocular pressure reduction action and the potential ocular toxicity of compound 63 were explored by 14 days of repeated eye-drop administration in rabbits with normal intraocular pressure.
Male New Zealand rabbits, aged 97-127 days, weighted 2.6-3.5 kg, purchased from PizhouDongfang Breeding Co. Ltd.
as §1

## Cc1ccc(C(=O)OCn2cc(C)c3c(S(=O)(=O)N4CC[C@H](N)C4)cccc3c2=O)c(C)c1 [Compound 63]
[1]; 0.25 mg/mL group, 2 hours after administration
  Intraocular pressure in the left eye: 6.07 mmHg
[1]; 0.25 mg/mL group, 4 hours after administration
  Intraocular pressure in the left eye: 6.60 mmHg
[1]; 0.25 mg/mL group, 6 hours after administration
  Intraocular pressure in the left eye: 9.10 mmHg
[1]; 0.25 mg/mL group, 8 hours after administration
  Intraocular pressure in the left eye: 11.50 mmHg
[1]; 0.25 mg/mL group, 10 hours after administration
  Intraocular pressure in the left eye: 12.43 mmHg
[1]; 0.25 mg/mL group, before administration
  Intraocular pressure in the left eye: 10.53 mmHg
[1]; 0.25 mg/mL in right eye (induced ocular hypertension), 2 hours after administration
  Intraocular pressure in the right eye: 8.47 mmHg
[1]; 0.25 mg/mL in right eye (induced ocular hypertension), 4 hours after administration
  Intraocular pressure in the right eye: 8.60 mmHg
[1]; 0.25 mg/mL in right eye (induced ocular hypertension), 6 hours after administration
  Intraocular pressure in the right eye: 11.20 mmHg
[1]; 0.25 mg/mL in right eye (induced ocular hypertension), 8 hours after administration
  Intraocular pressure in the right eye: 13.37 mmHg
[1]; 0.25 mg/mL in right eye (induced ocular hypertension), 10 hours after administration
  Intraocular pressure in the right eye: 13.10 mmHg
[1]; 0.25 mg/mL in right eye (induced ocular hypertension), before administration
  Intraocular pressure in the right eye: 11.43 mmHg
[1]; 2.0 mg/mL group, 2 hours after administration
  Intraocular pressure in the left eye: 6.60 mmHg
[1]; 2.0 mg/mL group, 4 hours after administration
  Intraocular pressure in the left eye: 7.04 mmHg
[1]; 2.0 mg/mL group, 6 hours after administration
  Intraocular pressure in the left eye: 11.23 mmHg
[1]; 2.0 mg/mL group, 8 hours after administration
  Intraocular pressure in the left eye: 12.84 mmHg
[1]; 2.0 mg/mL group, 10 hours after administration
  Intraocular pressure in the left eye: 13.10 mmHg
[1]; 2.0 mg/mL group, before administration
  Intraocular pressure in the left eye: 11.27 mmHg
[1]; 2.0 mg/mL in right eye (induced ocular hypertension), 2 hours after administration
  Intraocular pressure in the right eye: 8.52 mmHg
[1]; 2.0 mg/mL in right eye (induced ocular hypertension), 4 hours after administration
  Intraocular pressure in the right eye: 11.56 mmHg
[1]; 2.0 mg/mL in right eye (induced ocular hypertension), 6 hours after administration
  Intraocular pressure in the right eye: 13.81 mmHg
[1]; 2.0 mg/mL in right eye (induced ocular hypertension), 8 hours after administration
  Intraocular pressure in the right eye: 12.96 mmHg
[1]; 2.0 mg/mL in right eye (induced ocular hypertension), 10 hours after administration
  Intraocular pressure in the right eye: 11.96 mmHg
[1]; 2.0 mg/mL in right eye (induced ocular hypertension), before administration
  Intraocular pressure in the right eye: 11.23 mmHg
[1]; 8.0 mg/mL group, 2 hours after administration
  Intraocular pressure in the left eye: 5.93 mmHg
[1]; 8.0 mg/mL group, 4 hours after administration
  Intraocular pressure in the left eye: 6.43 mmHg
[1]; 8.0 mg/mL group, 6 hours after administration
  Intraocular pressure in the left eye: 10.10 mmHg
[1]; 8.0 mg/mL group, 8 hours after administration
  Intraocular pressure in the left eye: 11.87 mmHg
[1]; 8.0 mg/mL group, 10 hours after administration
  Intraocular pressure in the left eye: 13.19 mmHg
[1]; 8.0 mg/mL group, before administration
  Intraocular pressure in the left eye: 11.20 mmHg
[1]; 8.0 mg/mL in right eye (induced ocular hypertension), 2 hours after administration
  Intraocular pressure in the right eye: 7.40 mmHg
[1]; 8.0 mg/mL in right eye (induced ocular hypertension), 4 hours after administration
  Intraocular pressure in the right eye: 7.97 mmHg
[1]; 8.0 mg/mL in right eye (induced ocular hypertension), 6 hours after administration
  Intraocular pressure in the right eye: 8.84 mmHg
[1]; 8.0 mg/mL in right eye (induced ocular hypertension), 8 hours after administration
  Intraocular pressure in the right eye: 8.60 mmHg
[1]; 8.0 mg/mL in right eye (induced ocular hypertension), 10 hours after administration
  Intraocular pressure in the right eye: 8.78 mmHg
[1]; 8.0 mg/mL in right eye (induced ocular hypertension), before administration
  Intraocular pressure in the right eye: 11.53 mmHg
[2]
  Evaluation of ocular stimulation: no stimulation
[3]; 0.25 mg/mL in right eye, 1 hour after administration
  Mean intraocular pressure of both eyes: 6.22 mmHg
[3]; 0.25 mg/mL in right eye, 2 hours after administration
  Mean intraocular pressure of both eyes: 6.17 mmHg
[3]; 0.25 mg/mL in right eye, 4 hours after administration
  Mean intraocular pressure of both eyes: 6.67 mmHg
[3]; 0.25 mg/mL in right eye, 6 hours after administration
  Mean intraocular pressure of both eyes: 8.06 mmHg
[3]; 0.25 mg/mL in right eye, 8 hours after administration
  Mean intraocular pressure of both eyes: 9.72 mmHg
[3]; 0.25 mg/mL in right eye, 10 hours after administration
  Mean intraocular pressure of both eyes: 10.95 mmHg
[3]; 0.25 mg/mL in right eye, before administration
  Mean intraocular pressure of both eyes: 9.84 mmHg
[3]; 0.5 mg/mL in right eye, 1 hour after administration
  Mean intraocular pressure of both eyes: 5.39 mmHg
[3]; 0.5 mg/mL in right eye, 2 hours after administration
  Mean intraocular pressure of both eyes: 5.50 mmHg
[3]; 0.5 mg/mL in right eye, 4 hours after administration
  Mean intraocular pressure of both eyes: 6.95 mmHg
[3]; 0.5 mg/mL in right eye, 6 hours after administration
  Mean intraocular pressure of both eyes: 8.94 mmHg
[3]; 0.5 mg/mL in right eye, 8 hours after administration
  Mean intraocular pressure of both eyes: 9.89 mmHg
[3]; 0.5 mg/mL in right eye, 10 hours after administration
  Mean intraocular pressure of both eyes: 11.56 mmHg
[3]; 0.5 mg/mL in right eye, before administration
  Mean intraocular pressure of both eyes: 9.22 mmHg
[3]; 1.0 mg/mL in right eye, 1 hour after administration
  Mean intraocular pressure of both eyes: 5.56 mmHg
[3]; 1.0 mg/mL in right eye, 2 hours after administration
  Mean intraocular pressure of both eyes: 5.39 mmHg
[3]; 1.0 mg/mL in right eye, 4 hours after administration
  Mean intraocular pressure of both eyes: 6.67 mmHg
[3]; 1.0 mg/mL in right eye, 6 hours after administration
  Mean intraocular pressure of both eyes: 7.33 mmHg
[3]; 1.0 mg/mL in right eye, 8 hours after administration
  Mean intraocular pressure of both eyes: 10.50 mmHg
[3]; 1.0 mg/mL in right eye, 10 hours after administration
  Mean intraocular pressure of both eyes: 10.89 mmHg
[3]; 1.0 mg/mL in right eye, before administration
  Mean intraocular pressure of both eyes: 9.17 mmHg
[3]; 2.0 mg/mL in right eye, 1 hour after administration
  Mean intraocular pressure of both eyes: 8.11 mmHg
[3]; 2.0 mg/mL in right eye, 2 hours after administration
  Mean intraocular pressure of both eyes: 5.84 mmHg
[3]; 2.0 mg/mL in right eye, 4 hours after administration
  Mean intraocular pressure of both eyes: 6.06 mmHg
[3]; 2.0 mg/mL in right eye, 6 hours after administration
  Mean intraocular pressure of both eyes: 7.11 mmHg
[3]; 2.0 mg/mL in right eye, 8 hours after administration
  Mean intraocular pressure of both eyes: 9.00 mmHg
[3]; 2.0 mg/mL in right eye, 10 hours after administration
  Mean intraocular pressure of both eyes: 10.05 mmHg
[3]; 2.0 mg/mL in right eye, before administration
  Mean intraocular pressure of both eyes: 9.72 mmHg
[3]; 4 mg/mL in right eye, 1 hour after administration
  Mean intraocular pressure of both eyes: 6.61 mmHg
[3]; 4 mg/mL in right eye, 2 hours after administration
  Mean intraocular pressure of both eyes: 5.84 mmHg
[3]; 4 mg/mL in right eye, 4 hours after administration
  Mean intraocular pressure of both eyes: 5.72 mmHg
[3]; 4 mg/mL in right eye, 6 hours after administration
  Mean intraocular pressure of both eyes: 6.61 mmHg
[3]; 4 mg/mL in right eye, 8 hours after administration
  Mean intraocular pressure of both eyes: 8.39 mmHg
[3]; 4 mg/mL in right eye, 10 hours after administration
  Mean intraocular pressure of both eyes: 10.67 mmHg
[3]; 4 mg/mL in right eye, before administration
  Mean intraocular pressure of both eyes: 10.00 mmHg
[3]; all test doses (0.25-4.0 mg/mL), compared with K-115
  Efficacy of a single dose (highest hypotensive effect and action duration): superior efficacy
